{"source": "ChEMBL document CHEMBL3525920", "about": "“CYP4F enzymes are responsible for the elimination of fingolimod (FTY720), a novel treatment of relapsing multiple sclerosis” (Drug Metab Dispos, 2011)", "key": {"[1]": {"biological_target": "Cytochrome P450 2A6 (Homo sapiens, UniProt P11509)", "assay": "Activity at CYP2A6 in human liver microsomes isolated from donors assessed as metabolite formation after 24 mins by HPLC-RA analysis", "format": "ADME", "settings": "0.4 h"}, "[2]": {"biological_target": "Cytochrome P450 2C19 (Homo sapiens, UniProt P33261)", "sequence (P33261 whole entry)": "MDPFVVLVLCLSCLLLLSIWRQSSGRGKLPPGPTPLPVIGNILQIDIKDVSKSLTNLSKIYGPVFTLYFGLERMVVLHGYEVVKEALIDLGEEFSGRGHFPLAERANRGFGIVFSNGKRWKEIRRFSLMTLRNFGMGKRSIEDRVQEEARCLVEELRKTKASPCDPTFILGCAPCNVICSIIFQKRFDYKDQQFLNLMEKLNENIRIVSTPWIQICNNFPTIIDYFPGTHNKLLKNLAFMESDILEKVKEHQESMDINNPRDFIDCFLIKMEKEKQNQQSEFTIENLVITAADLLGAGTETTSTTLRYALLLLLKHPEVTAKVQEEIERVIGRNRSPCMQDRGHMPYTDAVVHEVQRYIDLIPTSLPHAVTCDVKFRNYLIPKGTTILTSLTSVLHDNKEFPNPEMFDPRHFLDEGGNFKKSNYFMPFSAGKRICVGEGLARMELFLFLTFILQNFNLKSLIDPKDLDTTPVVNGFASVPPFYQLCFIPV", "assay": "Activity at CYP2C19 in human liver microsomes isolated from donors assessed as metabolite formation after 24 mins by HPLC-RA analysis", "format": "ADME", "settings": "0.4 h"}, "[3]": {"biological_target": "Cytochrome P450 2D6 (Homo sapiens, UniProt P10635)", "sequence (P10635 whole entry)": "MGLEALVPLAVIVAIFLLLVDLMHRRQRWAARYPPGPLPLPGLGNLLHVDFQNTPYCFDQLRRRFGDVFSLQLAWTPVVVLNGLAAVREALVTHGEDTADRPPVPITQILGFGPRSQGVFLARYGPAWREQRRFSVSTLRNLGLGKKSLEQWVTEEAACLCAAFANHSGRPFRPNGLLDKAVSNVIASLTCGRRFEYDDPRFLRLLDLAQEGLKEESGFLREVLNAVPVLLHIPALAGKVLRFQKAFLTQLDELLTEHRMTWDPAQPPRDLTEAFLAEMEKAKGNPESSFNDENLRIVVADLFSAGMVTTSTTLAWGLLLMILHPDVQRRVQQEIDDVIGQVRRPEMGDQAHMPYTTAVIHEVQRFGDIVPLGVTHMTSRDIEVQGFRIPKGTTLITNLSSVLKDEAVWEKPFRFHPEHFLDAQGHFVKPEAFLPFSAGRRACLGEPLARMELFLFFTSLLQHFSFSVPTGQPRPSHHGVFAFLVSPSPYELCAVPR", "assay": "Activity at CYP2D6 in human liver microsomes isolated from donors assessed as metabolite formation after 24 mins by HPLC-RA analysis", "format": "ADME", "settings": "0.4 h"}, "[4]": {"assay": "Retention time of the compound by long gradient-based HPLC-RA analysis", "format": "physicochemical"}, "[5]": {"biological_target": "Cytochrome P450 1A2 (Homo sapiens, UniProt P05177)", "sequence (P05177 whole entry)": "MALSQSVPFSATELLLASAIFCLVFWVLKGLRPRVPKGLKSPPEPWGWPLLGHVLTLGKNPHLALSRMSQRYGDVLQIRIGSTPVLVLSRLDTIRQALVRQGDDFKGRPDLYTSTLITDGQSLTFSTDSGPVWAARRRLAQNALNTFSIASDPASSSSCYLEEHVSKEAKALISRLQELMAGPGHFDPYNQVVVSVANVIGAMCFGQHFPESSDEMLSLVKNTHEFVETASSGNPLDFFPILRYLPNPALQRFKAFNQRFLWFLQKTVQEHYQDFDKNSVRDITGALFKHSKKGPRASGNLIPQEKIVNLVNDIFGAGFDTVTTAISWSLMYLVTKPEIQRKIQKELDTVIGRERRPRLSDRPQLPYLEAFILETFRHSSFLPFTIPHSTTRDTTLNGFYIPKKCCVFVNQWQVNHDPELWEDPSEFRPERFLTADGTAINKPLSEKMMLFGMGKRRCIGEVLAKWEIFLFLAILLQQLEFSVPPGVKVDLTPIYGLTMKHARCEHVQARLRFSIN", "assay": "Activity at CYP1A2 in human liver microsomes isolated from donors assessed as metabolite formation after 24 mins by HPLC-RA analysis", "format": "ADME", "settings": "0.4 h"}, "[6]": {"biological_target": "Cytochrome P450 2E1 (Homo sapiens, UniProt P05181)", "sequence (P05181 whole entry)": "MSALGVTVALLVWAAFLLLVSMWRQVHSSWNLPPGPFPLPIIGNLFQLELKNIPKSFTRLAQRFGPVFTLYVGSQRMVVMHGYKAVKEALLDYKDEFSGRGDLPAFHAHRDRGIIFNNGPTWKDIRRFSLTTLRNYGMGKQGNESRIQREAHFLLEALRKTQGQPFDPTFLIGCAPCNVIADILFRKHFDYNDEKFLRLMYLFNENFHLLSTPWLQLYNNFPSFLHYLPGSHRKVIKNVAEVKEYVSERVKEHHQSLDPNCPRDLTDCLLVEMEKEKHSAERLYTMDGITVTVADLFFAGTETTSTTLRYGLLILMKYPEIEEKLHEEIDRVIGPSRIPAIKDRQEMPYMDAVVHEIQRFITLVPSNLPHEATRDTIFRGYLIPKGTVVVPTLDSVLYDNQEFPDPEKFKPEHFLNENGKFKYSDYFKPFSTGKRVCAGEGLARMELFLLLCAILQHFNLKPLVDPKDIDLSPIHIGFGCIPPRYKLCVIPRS", "assay": "Activity at CYP2E1 in human liver microsomes isolated from donors assessed as metabolite formation after 24 mins by HPLC-RA analysis", "format": "ADME", "settings": "0.4 h"}, "[7]": {"biological_target": "T1, Cytochrome P450 3A4 (Homo sapiens, UniProt P08684)", "T1 sequence (P08684 whole entry)": "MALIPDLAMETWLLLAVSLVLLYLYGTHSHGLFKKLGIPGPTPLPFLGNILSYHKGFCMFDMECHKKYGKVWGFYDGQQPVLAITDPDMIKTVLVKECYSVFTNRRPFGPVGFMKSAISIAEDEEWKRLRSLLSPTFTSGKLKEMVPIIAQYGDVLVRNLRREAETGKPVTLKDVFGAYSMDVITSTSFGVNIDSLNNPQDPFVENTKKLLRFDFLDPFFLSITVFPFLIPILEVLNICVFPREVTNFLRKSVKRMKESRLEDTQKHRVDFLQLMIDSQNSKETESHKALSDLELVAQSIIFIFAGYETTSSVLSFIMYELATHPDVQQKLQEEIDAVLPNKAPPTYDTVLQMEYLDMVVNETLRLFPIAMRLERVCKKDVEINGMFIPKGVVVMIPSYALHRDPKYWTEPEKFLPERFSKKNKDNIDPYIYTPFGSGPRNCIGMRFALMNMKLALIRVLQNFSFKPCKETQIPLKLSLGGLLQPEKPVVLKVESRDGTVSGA", "assay": "Activity at CYP3A4 in human liver microsomes isolated from donors assessed as metabolite formation after 24 mins by HPLC-RA analysis", "format": "ADME", "settings": "0.4 h"}, "[8]": {"assay": "Activity at FMO in human liver microsomes isolated from donors assessed as metabolite formation after 24 mins by HPLC-RA analysis", "format": "ADME", "settings": "0.4 h"}, "[9]": {"biological_target": "T1, Cytochrome P450 3A4", "assay": "Activity at human recombinant CYP3A4 expressed in baculovirus-infected BTI-TN-5B1-4 insect cell microsomes assessed as metabolite formation at 5 to 100 uM after 30 mins by HPLC-RA analysis", "format": "ADME", "settings": "bti-tn-5b1-4, 0.5 h"}, "[10]": {"biological_target": "T2, Cytochrome P450 4F12 (Homo sapiens, UniProt Q9HCS2)", "T2 sequence (Q9HCS2 whole entry)": "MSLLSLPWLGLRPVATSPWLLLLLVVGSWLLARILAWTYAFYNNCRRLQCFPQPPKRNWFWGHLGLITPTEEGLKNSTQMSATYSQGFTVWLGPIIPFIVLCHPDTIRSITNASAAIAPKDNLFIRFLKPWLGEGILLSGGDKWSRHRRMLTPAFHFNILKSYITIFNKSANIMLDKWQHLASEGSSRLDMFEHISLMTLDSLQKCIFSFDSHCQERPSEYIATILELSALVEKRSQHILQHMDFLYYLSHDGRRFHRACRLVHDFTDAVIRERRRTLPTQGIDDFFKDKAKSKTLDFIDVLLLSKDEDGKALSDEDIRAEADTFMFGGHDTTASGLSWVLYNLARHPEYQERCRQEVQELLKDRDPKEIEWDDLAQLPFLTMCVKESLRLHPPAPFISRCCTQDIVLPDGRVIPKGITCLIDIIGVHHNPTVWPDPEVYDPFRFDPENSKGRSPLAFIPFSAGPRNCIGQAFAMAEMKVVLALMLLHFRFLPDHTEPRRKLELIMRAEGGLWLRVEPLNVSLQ", "assay": "Activity at human recombinant CYP4F12 expressed in baculovirus-infected BTI-TN-5B1-4 insect cell microsomes assessed as metabolite formation at 5 to 100 uM after 30 mins by HPLC-RA analysis", "format": "ADME", "settings": "bti-tn-5b1-4, 0.5 h"}, "[11]": {"biological_target": "Cytochrome P450 2C18 (Homo sapiens, UniProt P33260)", "sequence (P33260 whole entry)": "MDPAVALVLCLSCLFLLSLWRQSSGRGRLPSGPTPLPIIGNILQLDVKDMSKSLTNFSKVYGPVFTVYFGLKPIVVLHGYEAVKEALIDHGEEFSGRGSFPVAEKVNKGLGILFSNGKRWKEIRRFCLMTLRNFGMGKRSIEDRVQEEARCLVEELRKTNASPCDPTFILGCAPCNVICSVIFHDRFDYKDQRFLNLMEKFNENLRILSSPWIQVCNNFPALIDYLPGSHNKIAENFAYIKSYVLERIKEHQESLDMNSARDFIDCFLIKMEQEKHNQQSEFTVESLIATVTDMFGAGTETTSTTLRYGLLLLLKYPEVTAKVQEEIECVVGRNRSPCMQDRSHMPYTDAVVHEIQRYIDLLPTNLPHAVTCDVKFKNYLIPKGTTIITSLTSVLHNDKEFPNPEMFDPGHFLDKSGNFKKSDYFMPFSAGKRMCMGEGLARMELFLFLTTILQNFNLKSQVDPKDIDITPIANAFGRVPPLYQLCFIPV", "assay": "Activity at human recombinant CYP2C18 expressed in baculovirus-infected BTI-TN-5B1-4 insect cell microsomes assessed as metabolite formation at 5 to 100 uM after 30 mins by HPLC-RA analysis", "format": "ADME", "settings": "bti-tn-5b1-4, 0.5 h"}, "[12]": {"biological_target": "Cytochrome P450 2J2 (Homo sapiens, UniProt P51589)", "sequence (P51589 whole entry)": "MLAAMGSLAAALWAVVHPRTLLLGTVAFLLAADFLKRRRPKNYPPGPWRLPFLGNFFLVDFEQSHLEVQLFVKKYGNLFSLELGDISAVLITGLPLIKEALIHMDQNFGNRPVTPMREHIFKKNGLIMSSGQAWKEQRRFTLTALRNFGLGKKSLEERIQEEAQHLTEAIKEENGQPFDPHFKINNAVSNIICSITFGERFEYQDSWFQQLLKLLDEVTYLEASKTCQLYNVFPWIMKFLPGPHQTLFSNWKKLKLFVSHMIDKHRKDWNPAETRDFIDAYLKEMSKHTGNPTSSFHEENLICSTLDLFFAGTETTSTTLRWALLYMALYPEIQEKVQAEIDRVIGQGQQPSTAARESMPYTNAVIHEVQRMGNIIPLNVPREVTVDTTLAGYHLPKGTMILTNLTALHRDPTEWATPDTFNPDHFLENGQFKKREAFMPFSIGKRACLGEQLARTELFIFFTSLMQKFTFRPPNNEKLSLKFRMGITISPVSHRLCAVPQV", "assay": "Activity at human recombinant CYP2J2 expressed in baculovirus-infected BTI-TN-5B1-4 insect cell microsomes assessed as metabolite formation at 5 to 100 uM after 30 mins by HPLC-RA analysis", "format": "ADME", "settings": "bti-tn-5b1-4, 0.5 h"}, "[13]": {"tested_on": "Liver microsome", "assay": "Drug metabolism in human liver microsomes assessed as metabolite M12 (2-amino-2-(4-(8-hydroxyoctyl)phenethyl)propane-1,3-diol) formation at 20 uM after 30 mins by HPLC-RA analysis in presence of NADPH", "format": "ADME", "settings": "0.5 h"}, "[14]": {"biological_target": "Cytochrome P450 4F3 (Homo sapiens, UniProt Q08477)", "sequence (Q08477 whole entry)": "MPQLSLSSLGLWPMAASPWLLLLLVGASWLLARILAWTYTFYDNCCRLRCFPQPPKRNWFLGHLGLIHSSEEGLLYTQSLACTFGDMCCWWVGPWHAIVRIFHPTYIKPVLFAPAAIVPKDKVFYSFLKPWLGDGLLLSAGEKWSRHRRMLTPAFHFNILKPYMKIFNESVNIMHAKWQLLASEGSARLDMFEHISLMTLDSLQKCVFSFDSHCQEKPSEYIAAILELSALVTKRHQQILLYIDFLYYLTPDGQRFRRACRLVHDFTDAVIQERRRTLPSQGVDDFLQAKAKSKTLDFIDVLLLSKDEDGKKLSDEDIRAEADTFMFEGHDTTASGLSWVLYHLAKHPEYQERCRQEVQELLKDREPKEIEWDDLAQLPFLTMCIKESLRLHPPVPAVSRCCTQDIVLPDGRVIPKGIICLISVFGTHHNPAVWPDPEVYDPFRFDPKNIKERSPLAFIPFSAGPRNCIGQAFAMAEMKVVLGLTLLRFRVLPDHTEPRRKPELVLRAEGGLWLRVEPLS", "assay": "Activity at human recombinant CYP4F3A expressed in baculovirus-infected BTI-TN-5B1-4 insect cell microsomes assessed as metabolite formation at 5 to 100 µM after 30 mins by HPLC-RA analysis", "format": "ADME", "settings": "bti-tn-5b1-4, 0.5 h"}, "[15]": {"biological_target": "T3, Cytochrome P450 4F2 (Homo sapiens, UniProt P78329)", "T3 sequence (P78329 whole entry)": "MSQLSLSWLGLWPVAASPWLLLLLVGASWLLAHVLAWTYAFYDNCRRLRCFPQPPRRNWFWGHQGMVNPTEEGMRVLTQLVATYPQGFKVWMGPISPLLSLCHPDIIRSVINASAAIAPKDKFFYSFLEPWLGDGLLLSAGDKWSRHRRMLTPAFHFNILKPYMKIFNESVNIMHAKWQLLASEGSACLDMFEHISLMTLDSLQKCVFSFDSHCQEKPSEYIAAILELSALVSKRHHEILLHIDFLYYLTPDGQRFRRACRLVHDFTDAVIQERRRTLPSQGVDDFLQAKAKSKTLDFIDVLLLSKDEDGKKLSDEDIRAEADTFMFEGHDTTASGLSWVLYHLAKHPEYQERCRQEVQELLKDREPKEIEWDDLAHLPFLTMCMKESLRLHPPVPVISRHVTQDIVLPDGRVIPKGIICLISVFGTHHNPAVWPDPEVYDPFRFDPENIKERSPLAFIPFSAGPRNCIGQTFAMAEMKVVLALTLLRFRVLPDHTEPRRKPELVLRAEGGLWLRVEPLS", "assay": "Activity at human recombinant CYP4F2 expressed in baculovirus-infected BTI-TN-5B1-4 insect cell microsomes assessed as intrinsic clearance for metabolite formation after 15 mins measured per nmol of P450 by Eadie-Hofstee plot analysis", "format": "ADME", "settings": "bti-tn-5b1-4, 0.25 h"}, "[16]": {"tested_on": "Liver microsome", "assay": "Drug metabolism in human liver microsomes assessed as total metabolite formation at 1 uM after 20 mins by HPLC-RA analysis in presence of 10 uM CYP3A4 inhibitor ketoconazole", "format": "ADME"}, "[17]": {"tested_on": "Liver microsome", "assay": "Drug metabolism in human liver microsomes assessed as total metabolite formation at 1 to 50 uM after 20 mins by HPLC-RA analysis in presence of irreversible CYP3A inhibitor azamulin", "format": "ADME"}, "[18]": {"tested_on": "Liver microsome", "assay": "Drug metabolism in human liver microsomes assessed as total metabolite formation at 1 to 50 uM after 20 mins by HPLC-RA analysis in presence of CYP2C8 inhibitor paclitaxel", "format": "ADME"}, "[19]": {"tested_on": "Liver microsome", "assay": "Drug metabolism in human liver microsomes assessed as total metabolite formation at 1 to 50 uM after 20 mins by HPLC-RA analysis in presence of mechanism-based CYP2E1 inhibitor DETC and NADPH", "format": "ADME"}, "[20]": {"biological_target": "T3, Cytochrome P450 4F2", "assay": "Activity at human recombinant CYP4F2 expressed in baculovirus-infected BTI-TN-5B1-4 insect cell microsomes at 10 uM by HPLC-RA analysis in presence of CYP4F2 and CYP4F12 inhibitor ketoconazole", "format": "ADME", "settings": "bti-tn-5b1-4, 10 µM"}, "[21]": {"biological_target": "T2, Cytochrome P450 4F12", "assay": "Activity at human recombinant CYP4F12 expressed in baculovirus-infected BTI-TN-5B1-4 insect cell microsomes at 10 uM by HPLC-RA analysis in presence of CYP4F2 and CYP4F12 inhibitor ketoconazole", "format": "ADME", "settings": "bti-tn-5b1-4, 10 µM"}, "[22]": {"tested_on": "Liver microsome", "assay": "Drug metabolism in human liver microsomes assessed as metabolite formation at 50 uM treated 15 mins after antibody addition measured after 20 mins by HPLC-RA analysis in presence of CYP2D6-specific monoclonal antibody", "format": "ADME"}, "[23]": {"tested_on": "Liver microsome", "assay": "Drug metabolism in human liver microsomes assessed as metabolite formation at 50 uM treated 15 mins after antibody addition measured after 20 mins by HPLC-RA analysis in presence of CYP2E1-specific monoclonal antibody", "format": "ADME"}, "[24]": {"tested_on": "Liver microsome", "assay": "Drug metabolism in human liver microsomes assessed as metabolite formation at 50 uM treated 15 mins after antibody addition measured after 20 mins by HPLC-RA analysis in presence of CYP3A4-specific monoclonal antibody", "format": "ADME"}, "[25]": {"tested_on": "Liver microsome", "assay": "Drug metabolism in human liver microsomes assessed as metabolite formation at 50 uM treated 15 mins after antibody addition measured after 20 mins by HPLC-RA analysis in presence of CYP4F2-specific polyclonal antibody", "format": "ADME"}}}
{"smiles": "CCCCCCCCc1ccc(CC[14C](N)(CO)CO)cc1.Cl", "values": [{"measurement": "Drug metabolism", "setting": "[1]", "value": "metabolite_not_detected"}, {"measurement": "Drug metabolism", "setting": "[2]", "value": "metabolite_not_detected"}, {"measurement": "Drug metabolism", "setting": "[3]", "value": "metabolite_not_detected"}, {"measurement": "Retention_time", "setting": "[4]", "value": 41.9, "unit": "min"}, {"measurement": "Drug metabolism", "setting": "[5]", "value": "metabolite_not_detected"}, {"measurement": "Drug metabolism", "setting": "[6]", "value": "metabolite_not_detected"}, {"measurement": "Drug metabolism", "setting": "[7]", "value": "metabolite_not_detected"}, {"measurement": "Drug metabolism", "setting": "[8]", "value": "metabolite_not_detected"}, {"measurement": "Drug metabolism", "setting": "[9]", "value": "metabolite_detected"}, {"measurement": "Drug metabolism", "setting": "[10]", "value": "metabolite_detected"}, {"measurement": "Drug metabolism", "setting": "[11]", "value": "metabolite_not_detected"}, {"measurement": "Drug metabolism", "setting": "[12]", "value": "metabolite_not_detected"}, {"measurement": "Drug metabolism", "setting": "[13]", "value": "metabolite_detected"}, {"measurement": "Drug metabolism", "setting": "[14]", "value": "metabolite_not_detected"}, {"measurement": "CL", "setting": "[15]", "value": 23, "unit": "µL/min"}, {"measurement": "Drug metabolism", "setting": "[16]", "value": "metabolite_not_detected"}, {"measurement": "Drug metabolism", "setting": "[17]", "value": "metabolite_not_detected"}, {"measurement": "Drug metabolism", "setting": "[18]", "value": "metabolite_detected"}, {"measurement": "Drug metabolism", "setting": "[19]", "value": "metabolite_detected"}, {"measurement": "Drug metabolism", "setting": "[20]", "value": "metabolite_not_detected"}, {"measurement": "Drug metabolism", "setting": "[21]", "value": "metabolite_not_detected"}, {"measurement": "Drug metabolism", "setting": "[22]", "value": "metabolite_detected"}, {"measurement": "Drug metabolism", "setting": "[23]", "value": "metabolite_detected"}, {"measurement": "Drug metabolism", "setting": "[24]", "value": "metabolite_detected"}, {"measurement": "Drug metabolism", "setting": "[25]", "value": "metabolite_not_detected"}]}
